US12377069B2, “Compounds, compositions, methods of using, and methods for preparing compounds” (UNIVERSITY OF LOUISVILLE RESEARCH FOUNDATION, INC., priority 2018, dated 2025)
“Also recorded” adds a separate entry of the source.

Assays:
C57BL/6N mice = experiment: Chronic ALD mouse model; assay type: in vivo; settings: 20 mg/kg orally every other day, 4 weeks
Description: FIG. 18: UAS03 mitigates chronic ALD. (A) C57BL/6 mice (10 wk old age) were used in chronic ALD models and analyzed after 4 weeks as described. Pair fed (n=5/group) and EtOH fed (n=10/group) mice were treated with Veh (0.25% CMC) and UAS03 (20 mg/kg) alternate day for 4 weeks. (B) Gross images of colons (C) colon lengths (D) In vivo permeability using FITC-Dextran was measured. (E) Serum ALT, AST, endotoxin, IL-6, TNF-α were measured using ELISA methods. (F) H&E sections (20×) of liver are shown. Scale bar is 100 μm. Fat droplets (white) are visible in EtOH group. (G) The levels of triglycerides (TGs), IL-6, TNF-α and myeloperoxidase (MPO) were measured in liver tissues. (H) Immunoblot of Ocln expression in ileum tissues (n=3) from mice fed with EtOH treated with Veh or UAS03. Error bars, ±SEM. Statistics were performed using 2way ANOVA multiple comparisons. * p<0.05, ** p<0.01, *** p<0.001.
Male C57BL/6N (10 week age old) were purchased from Jackson Laboratory and were acclimatized with pair fed liquid diet (Lieber DeCarli) for 1 week. After acclimatization, animals were fed with pair fed (n=5 mice/group) and alcohol diet (n=10 mice/group). Briefly, mice were fed with diet containing 17% of energy as protein, 40% as corn oil, 7.5% as carbohydrate, and 35.5% as either alcohol (5% v/w, alcohol-fed, AF) or isocaloric maltose dextrin (pair-fed, PF). Before mice went on to 5% alcohol diet, alcohol concentration was ramped from 1.6% (3 days) to 3.6% (3 days) and finally 5% for next 4 weeks. UAS03 group animals received UAS03 orally (20 mg/kg/day) on every other day after start of alcohol diet (FIG. 18A). We used 0.25% sodium carboxymethyl cellulose (CMC) as vehicle treatment. The mice were euthanized after 4 weeks and measured colon lengths (FIG. 18B-C), in vivo gut permeability (FITC-dextran assay), serum ALT, AST, endotoxin, IL-6 and TNF-α (FIG. 18E).

Snail transgenic mice = experiment: Scleroderma model in Snail transgenic mice; assay type: in vivo, mouse
Description: UAS03 attenuates Scleroderma associated vascular permeability in Snail transgenic mice. Calorimetric quantification of Evan's blue dye extracted from back skin using UV spectrophotometer. […] Animals treated with UAS03 show more than 3-fold reduction in the dye leakage (FIG. 24).
Expression for fibrosis associated genes in the back skin of the Snail transgenic mice. The mRNA levels of the Collagen 1 were measured in back skin using RT-qPCR. […] The expression in UAS03 treated group, in both males and females, were reduced. The levels were separately assessed in males and females in vehicle and drug treated animals (FIG. 25).

C57BL/6 mice = experiment: Chronic low dose alcohol model; assay type: in vivo, mouse; settings: 20 mg/kg orally 2 h prior to EtOH 3 g/kg twice daily, 5 days
Description: C57BL/6 mice (10 wk old age) were used in low dose chronic ALD models. Mice were treated with EtOH (3 g/kg) daily twice orally for 5 days at 3 g/kg, UroA (20 mg/kg) was given orally 2 h prior to EtOH treatment. Mice were euthanized on day 6 and analyzed the indicated parameters. Error bars, ±SEM. Statistics were performed using 2 way ANOVA multiple comparisons. * p<0.05, ** p<0.01, *** p<0.001.
C57BL/6 mice (n=5 per group) were treated with EtOH (3 g/kg) twice daily orally for 5 days. UroA (20 mg/kg) was given orally 2 h prior to EtOH treatment. We evaluated gut permeability and inflammation parameters both in serum and liver (FIG. 17).

[1] = target: T1, breast cancer resistance protein (BCRP) (Homo sapiens, UniProt Q9UNQ0); experiment: BCRP drug efflux activity; assay type: cell-based; settings: colon cancer cell lines
T1 construct: endogenous in cells
T1 sequence (Q9UNQ0 whole entry): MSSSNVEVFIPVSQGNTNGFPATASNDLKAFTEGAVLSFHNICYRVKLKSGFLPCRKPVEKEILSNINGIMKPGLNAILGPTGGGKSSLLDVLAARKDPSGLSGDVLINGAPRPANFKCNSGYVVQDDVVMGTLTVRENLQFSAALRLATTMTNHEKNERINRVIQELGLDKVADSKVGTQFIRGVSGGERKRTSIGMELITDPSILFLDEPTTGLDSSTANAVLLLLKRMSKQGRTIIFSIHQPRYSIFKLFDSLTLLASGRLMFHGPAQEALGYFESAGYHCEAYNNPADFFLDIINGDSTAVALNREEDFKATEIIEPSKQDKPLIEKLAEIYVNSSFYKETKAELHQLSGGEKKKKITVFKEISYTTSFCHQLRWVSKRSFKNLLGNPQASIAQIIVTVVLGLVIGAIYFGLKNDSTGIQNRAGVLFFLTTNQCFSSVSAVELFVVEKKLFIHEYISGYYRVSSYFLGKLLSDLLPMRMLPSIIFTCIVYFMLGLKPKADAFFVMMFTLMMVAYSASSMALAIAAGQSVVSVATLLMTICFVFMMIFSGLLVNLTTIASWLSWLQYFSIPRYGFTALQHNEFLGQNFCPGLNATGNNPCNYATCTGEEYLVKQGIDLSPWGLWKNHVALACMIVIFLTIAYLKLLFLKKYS
Excerpt: (§1) Therefore, blocking its activity and/or downregulating the expression of BCRP, P-gp could reverse the effect and sensitize the cancer cells.

P-glycoprotein (P-gp) = P-glycoprotein (P-gp) (Homo sapiens, UniProt P08183)
P-glycoprotein (P-gp), sequence (P08183 whole entry): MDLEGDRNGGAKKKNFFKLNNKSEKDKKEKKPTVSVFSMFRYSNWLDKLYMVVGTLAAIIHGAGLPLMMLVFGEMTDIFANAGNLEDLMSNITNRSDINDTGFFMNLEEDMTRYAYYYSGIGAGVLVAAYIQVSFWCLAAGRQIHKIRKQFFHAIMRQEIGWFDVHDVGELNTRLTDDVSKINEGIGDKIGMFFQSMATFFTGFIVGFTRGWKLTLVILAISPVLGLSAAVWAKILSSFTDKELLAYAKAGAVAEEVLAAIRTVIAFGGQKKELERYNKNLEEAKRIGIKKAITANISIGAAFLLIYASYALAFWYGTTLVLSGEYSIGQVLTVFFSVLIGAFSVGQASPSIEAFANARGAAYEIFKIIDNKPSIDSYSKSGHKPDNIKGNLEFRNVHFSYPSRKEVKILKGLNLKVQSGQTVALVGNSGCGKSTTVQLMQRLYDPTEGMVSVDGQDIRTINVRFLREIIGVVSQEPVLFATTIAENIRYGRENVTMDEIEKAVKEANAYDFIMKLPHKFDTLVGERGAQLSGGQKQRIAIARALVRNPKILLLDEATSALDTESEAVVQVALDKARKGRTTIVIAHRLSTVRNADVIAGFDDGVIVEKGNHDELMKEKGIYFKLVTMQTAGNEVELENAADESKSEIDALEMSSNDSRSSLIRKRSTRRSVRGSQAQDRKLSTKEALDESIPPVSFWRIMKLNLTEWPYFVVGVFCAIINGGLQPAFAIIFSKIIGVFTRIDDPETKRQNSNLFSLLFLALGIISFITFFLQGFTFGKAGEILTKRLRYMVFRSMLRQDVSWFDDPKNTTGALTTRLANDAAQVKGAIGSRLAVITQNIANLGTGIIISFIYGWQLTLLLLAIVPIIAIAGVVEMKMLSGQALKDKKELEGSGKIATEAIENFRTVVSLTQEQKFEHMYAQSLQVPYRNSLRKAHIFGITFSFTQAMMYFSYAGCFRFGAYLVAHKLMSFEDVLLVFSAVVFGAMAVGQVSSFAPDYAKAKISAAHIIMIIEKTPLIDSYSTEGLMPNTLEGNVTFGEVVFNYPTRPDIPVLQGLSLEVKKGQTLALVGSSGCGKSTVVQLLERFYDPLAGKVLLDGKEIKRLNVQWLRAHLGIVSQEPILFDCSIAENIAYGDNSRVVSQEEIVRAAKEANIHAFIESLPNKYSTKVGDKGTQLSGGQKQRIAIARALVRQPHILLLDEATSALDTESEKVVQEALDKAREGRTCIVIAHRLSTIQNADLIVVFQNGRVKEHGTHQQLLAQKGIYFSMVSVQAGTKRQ
Excerpt: as §1

SMILES	deterioration of Ocln in the gut (C57BL/6N mice)	liver fat deposition (histopathology) (C57BL/6N mice)	liver inflammation (IL-6, TNF-α, MPO) and TG levels (C57BL/6N mice)	reduction in Evan's blue dye leakage in back skin (Snail transgenic mice; Snail transgenic mice)	Collagen 1 mRNA expression in back skin (Snail transgenic mice; males and females, RT-qPCR)	chronic low dose alcohol induced gut barrier dysfunction and inflammation (C57BL/6 mice)	BCRP drug efflux activity [1]	drug efflux activity of P-glycoprotein (P-gp) (P-glycoprotein (P-gp))	efflux of Rh123 (P-glycoprotein (P-gp); 50 μM)
Oc1ccc2c(c1)COc1cc(O)ccc1-2 [UAS03, 6H-benzo[c]chromene-3,8-diol]	protected from deterioration of Ocln	reduced liver fat deposition	down regulated liver inflammation and TG levels	more than 3 fold	reduced	–	–	–	–
O=c1oc2cc(O)ccc2c2ccc(O)cc12 [UroA, 3,8-dihydroxy-6H-dibenzo[b,d]pyran-6-one]	–	–	–	–	–	protects against	decreased drug efflux activities; also recorded: reduced the BCRP activity	decreased drug efflux activities	blocked efflux of Rh123
